The target in one test is TRPV1 (Mus musculus, UniProt Q704Y3). Briefly: Resiniferatoxin pretreatment: heat sensitivity, imiquimod-induced scratches, TLR7+ skin fibers. Type of test: in vivo, mice. Also on record: central terminals of TRPV1-expressing nociceptors; from tissue; host or cells: mouse lumbar spinal cord slices (L4-L5); live mice (intrathecal capsaicin, resiniferatoxin pretreatment). An excerpt:
C-fibers, express transient receptor potential subtype V1 (TRPV1) and are indispensable for itch sensation by various pruritogens (Imamachi, N. et al. Proc. Natl. Acad. Sci. U.S. A 106, 11330-11335 (2009)). […] Thus, TRPV1-expressing C-fibers but not TRPV1 per se are required for imiquimod-elicited itch. We also tested itch responses in mast cell-deficient SASH mice (Liu, Q. et al. Cell 139, 1353-1365 (2009)) and only found a moderate reduction (28%) in imiquimod-induced scratching (FIG. 12c).

For a further test, the system named is DRG neurons. Put plainly: Calcium imaging from cultured DRG neurons. Conditions: wild-type mice DRG neurons. Type of test: cell-based. The protocol: DRGs from all spinal levels of 4-week old mice were collected in cold DH10 (90% DMEM/F-12, 10% FBS, 100 U/ml penicillin, and 100 μg/ml Streptomycin, Gibco) and treated with enzyme solution (5 mg/ml Dispase, 1 mg/ml Collagenase Type I in HPBS without Ca^++ and Mg^++, Gibco) at 37° C. Following trituration and centrifugation, cells were resuspended in DH10, plated on glass cover slips coated with poly-D-lysine (0.5 mg/ml, Stoughton, Mass.) and laminin (10 μg/ml, Invitrogen), cultured in an incubator ([…] and 5% CO2) at 37° C. and used within 24 hours. Neurons were loaded with Fura 2-acetomethoxy ester (Molecular Probes) for 30 min in the dark at room temperature. After washing, cells were imaged at 340 and 380 nm excitation to detect intracellular free calcium. To compare the response to histamine, chloroquine, and capsaicin between WT and Tlr3-deficient DRG neurons, calcium imaging assays were performed with an experimenter blind to genotype (n=3 per genotype), and the percentages of DRG neurons showing calcium responses were determined as we previously described (23).

The subject of test [1] is TLR7. Put plainly: Scratches after intradermal injection in the nape of the neck, WT and Tlr7-/- mice. It counts as in vivo. The conditions noted are these: for dose response curve of scratching: intradermal injection, nape. An excerpt:
We next evaluated whether TLR7 plays a role in itch sensation. We counted the number of scratches (bouts) by a hindpaw of mouse following intradermal injection of pruritogenic agents in the nape of the neck.

The target of test [2] is T1, TLR7 (Mus musculus, UniProt P58681).
T1 construct: We found functional TLR7 receptors in small-size DRG neurons; from tissue; host or cells: small DRG neurons of mice; nape and cheek skin of live mice (C57BL/6J background, CD1)
T1 sequence (P58681 27-1050): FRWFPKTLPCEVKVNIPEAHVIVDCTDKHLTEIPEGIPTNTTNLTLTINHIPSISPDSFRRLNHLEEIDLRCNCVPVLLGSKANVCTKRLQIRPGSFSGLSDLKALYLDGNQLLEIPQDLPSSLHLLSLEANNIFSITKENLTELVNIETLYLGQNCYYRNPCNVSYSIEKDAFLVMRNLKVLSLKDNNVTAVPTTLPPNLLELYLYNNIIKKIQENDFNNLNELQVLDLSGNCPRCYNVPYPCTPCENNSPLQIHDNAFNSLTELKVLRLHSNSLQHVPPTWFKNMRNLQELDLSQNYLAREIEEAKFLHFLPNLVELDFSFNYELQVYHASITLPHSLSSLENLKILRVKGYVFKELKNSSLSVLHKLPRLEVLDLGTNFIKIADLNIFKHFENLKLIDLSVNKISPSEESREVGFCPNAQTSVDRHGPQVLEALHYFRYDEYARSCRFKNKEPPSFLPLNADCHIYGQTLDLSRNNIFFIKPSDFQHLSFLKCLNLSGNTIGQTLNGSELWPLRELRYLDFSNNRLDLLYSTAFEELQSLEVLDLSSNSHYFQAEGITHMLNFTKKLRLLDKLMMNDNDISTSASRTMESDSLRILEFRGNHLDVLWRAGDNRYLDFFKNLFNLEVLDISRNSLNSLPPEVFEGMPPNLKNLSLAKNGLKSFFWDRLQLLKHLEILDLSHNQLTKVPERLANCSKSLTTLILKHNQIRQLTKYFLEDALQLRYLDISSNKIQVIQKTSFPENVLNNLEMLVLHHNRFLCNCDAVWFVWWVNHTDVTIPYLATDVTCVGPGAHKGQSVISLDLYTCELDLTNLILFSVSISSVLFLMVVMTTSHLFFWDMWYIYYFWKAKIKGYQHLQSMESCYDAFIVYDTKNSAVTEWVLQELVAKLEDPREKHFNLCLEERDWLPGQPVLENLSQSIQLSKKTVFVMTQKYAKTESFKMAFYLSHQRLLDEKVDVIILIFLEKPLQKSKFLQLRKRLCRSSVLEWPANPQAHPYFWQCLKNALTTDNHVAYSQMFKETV
Put plainly: Cheek model of itch versus pain, TLR7 ligands. It counts as in vivo, mice. The conditions noted are these: 20 μg intradermal into the cheek. As to the method:
To distinguish itch and pain responses simultaneously, we used the cheek model by injection of chemical into cheek of mice (8). After brief anesthesia with isoflurane, we shaved mice on cheeks (approx. 5×8 mm area) two days before experiments. On the day of experiment, we injected 10 μl of reagent (50 μg compound 48/80 or 100 μg chloroquine) into the cheek and counted the number of wipes and the number of scratches for 30 min. We only counted those unilateral wipes with the forelimb that were not part of grooming behavior. One scratch was defined as a lifting of the hind paw toward the injection site on the cheek and then returning the paw to the floor or to the mouth.
To further investigate a unique role of TLR7 in itch versus pain, we used a recently developed “cheek model” of itch (Shimada, S. G. & LaMotte, R. H. Pain 139, 681-687 (2008)).

Sequence of TRPV1 (Q704Y3 whole entry): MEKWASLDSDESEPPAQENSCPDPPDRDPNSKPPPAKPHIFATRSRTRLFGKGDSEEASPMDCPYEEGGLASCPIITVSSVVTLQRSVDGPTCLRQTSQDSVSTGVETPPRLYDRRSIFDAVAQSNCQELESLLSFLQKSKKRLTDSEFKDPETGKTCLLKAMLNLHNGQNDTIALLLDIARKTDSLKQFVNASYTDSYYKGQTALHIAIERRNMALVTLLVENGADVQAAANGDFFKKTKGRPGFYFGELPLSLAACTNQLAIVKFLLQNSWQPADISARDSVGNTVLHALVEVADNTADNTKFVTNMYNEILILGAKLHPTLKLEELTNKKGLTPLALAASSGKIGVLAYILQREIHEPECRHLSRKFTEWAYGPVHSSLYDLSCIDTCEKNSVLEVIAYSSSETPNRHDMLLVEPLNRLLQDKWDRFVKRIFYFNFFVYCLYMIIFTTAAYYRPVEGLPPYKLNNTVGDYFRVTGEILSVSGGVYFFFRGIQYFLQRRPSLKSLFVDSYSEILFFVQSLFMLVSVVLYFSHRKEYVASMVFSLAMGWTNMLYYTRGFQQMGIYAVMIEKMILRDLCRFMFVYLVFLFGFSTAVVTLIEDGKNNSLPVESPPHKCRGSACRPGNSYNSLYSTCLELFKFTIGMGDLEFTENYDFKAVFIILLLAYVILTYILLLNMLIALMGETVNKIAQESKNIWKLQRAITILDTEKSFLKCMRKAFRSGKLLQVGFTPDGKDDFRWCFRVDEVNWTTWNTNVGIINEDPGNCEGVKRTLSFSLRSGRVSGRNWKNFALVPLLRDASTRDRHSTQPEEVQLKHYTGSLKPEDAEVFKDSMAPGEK

In the case of `C=C(C)[C@]12C[C@@H](C)[C@@]34O[C@](Cc5ccccc5)(O[C@@H]1[C@@H]3C=C(COC(=O)Cc1ccc(O)c(OC)c1)C[C@]1(O)C(=O)C(C)=C[C@@H]41)O2` [RTX, resiniferatoxin], on TRPV1 (RTX pretreatment), the “heat sensitivity after pretreatment” value is listed as “loss of heat sensitivity” and the “imiquimod-induced scratches after pretreatment” value is on record as “almost abolished”. Besides, the “TLR7+ fibers in the skin” value on TRPV1 (RTX treatment) is “ablated”.

For the molecule `CCN(CC)CCCC(C)Nc1ccnc2cc(Cl)ccc12` (centres unmarked) [chloroquine], in the test on DRG neurons, the “neurons with intracellular Ca2+ increases” value stood at 5%. For the same molecule, in the test with TLR7 [1] (600 μg), the “TLR7 dependence of scratching at the highest dose” value was “TLR7-independent”. Besides, the “dose response curve of scratching” value in the test with TLR7 [1] is reported as “bell-shaped dose response curve”.

With `C=CCn1c(=O)n([C@@H]2O[C@H](CO)[C@@H](O)[C@H]2O)c2nc(N)[nH]c(=O)c21` [loxoribine], the “dose response curve of scratching” value in the test on TLR7 [1] is reported as “inverted-U-shaped dose response curve”. In addition, in the test on TLR7 [1] (intradermal, 100 μg), the “scratches in Tlr7-/- mice versus WT” value is recorded as “reduced”. In addition, at TLR7 [2], the “itch-like scratching in cheek model” value is “elicited itch-like scratching” and the “pain-indicative wiping in cheek model” value is on record as “not pain-indicative wiping behavior”.

Take `NCCc1c[nH]cn1` [histamine]: the “neurons with intracellular Ca2+ increases” value in the test with DRG neurons is recorded as 10%.

Values taken from US9241991B2, “Agents, compositions, and methods for treating pruritus and related skin conditions” (The Brigham and Women's Hospital, Inc., priority 2010, dated 2016).
